Measurements published in US8580297B2, “Components for producing amphoteric liposomes” (Marina Biotech, Inc., priority 2002, dated 2013).

Assay: Zeta potential profile at varying pH of amphoteric liposomes (zero point = isoelectric point)
Type: physicochemical
Conditions: liposomes of 2 mg lipid and 10 mg DMPC; buffer 10 mM Kac, 10 mM HEPES, 150 mM NaCl; extruded 200 nm; value is a pH
Procedure: FIG. 1 is a graph showing a profile of the zeta potential in mV at varying pH values for the amphoteric liposomes prepared according to Example 4.
2 mg of the corresponding lipid and 10 mg of DMPC are dissolved in 4 ml of chloroform/methanol (1:1 v/v) and dried completely in a rotary evaporator. The lipid film is hydrated with 4.3 ml of buffer (10 mM Kac, 10 mM HEPES, 150 mM NaCl, pH 7.5) at a lipid concentration of 5 mM using ultrasonic treatment for 5 minutes. Finally, the suspension is frozen and, following thawing, subjected to multiple extrusions (Avestine LiposoFast, polycarbonate filter, pore width 200 nm). The profile of the zeta potential in mV at varying pH values is illustrated in FIG. 1. The zero point indicates the pH value at which the liposome is discharged. This pH corresponds to the isoelectric point of the lipid and is 4.5 for #8, 5.2 for #34, 5.7 for #25.

| SMILES | isoelectric point of the lipid (pH value at which the liposome is discharged, zero point of zeta potential) |
| --- | --- |
| CCCC(=O)OC(COC(=O)CC)OP(=O)(O)OCCNCCC(=O)NC(Cc1c[nH]cn1)C(=O)O (centres unmarked) [#25, phosphatidyl glycerylcarnosine] | 5.7 |
| CCCCCCCC/C=C\CCCCCCCC(=O)OCC(CN(CCC(=O)O)CCC(=O)O)OC(=O)CCCCCCC/C=C\CCCCCCCC (centres unmarked) [#8, N,N-bis(propanoic acid-3-yl)-N-(2,3-dioleoyloxypropyl)amine] | 4.5 |
